The molecules below were run against T1, Hepatic sodium/bile acid cotransporter (Homo sapiens, UniProt Q14973) (assay: TP_TRANSPORTER: uptake in Xenopus laevis oocytes). Conditions: oocyte.
T1 sequence (Q14973 whole entry): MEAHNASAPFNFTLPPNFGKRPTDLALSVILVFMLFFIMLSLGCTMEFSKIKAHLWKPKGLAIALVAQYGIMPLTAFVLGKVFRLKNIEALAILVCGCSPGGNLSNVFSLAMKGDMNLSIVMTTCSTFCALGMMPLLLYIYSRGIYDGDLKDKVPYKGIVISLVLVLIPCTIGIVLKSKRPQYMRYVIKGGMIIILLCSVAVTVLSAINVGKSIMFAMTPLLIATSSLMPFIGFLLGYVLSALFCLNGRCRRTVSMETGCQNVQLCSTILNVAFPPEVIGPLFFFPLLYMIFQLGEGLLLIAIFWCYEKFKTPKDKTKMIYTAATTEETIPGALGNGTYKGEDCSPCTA
Format: functional, cell-based

| SMILES | Activity |
| --- | --- |
| C[C@]12CC[C@@H]3c4ccc(OS(=O)(=O)O)cc4CC[C@H]3[C@@H]1CCC2=O [ESTRONE SULFURIC ACID] | substrate [+] |
| C[C@H](CCC(=O)NCC(=O)O)[C@H]1CC[C@H]2[C@@H]3[C@H](O)C[C@@H]4C[C@H](O)CC[C@]4(C)[C@H]3C[C@H](O)[C@]12C [GLYCOCHOLIC ACID] | substrate [+] |
| O=C1OC(c2ccc(O)c(S(=O)(=O)[O-])c2)(c2ccc(O)c(S(=O)(=O)[O-])c2)c2c(Br)c(Br)c(Br)c(Br)c21.[Na+].[Na+] [SULFOBROMOPHTHALEIN SODIUM] | substrate [+] |
| C[C@H](CCC(=O)NCCS(=O)(=O)O)[C@H]1CC[C@H]2[C@@H]3[C@H](O)C[C@@H]4C[C@H](O)CC[C@]4(C)[C@H]3CC[C@]12C [TAUROCHENODEOXYCHOLATE] | substrate [+] |
| C[C@H](CCC(=O)NCCS(=O)(=O)O)[C@H]1CC[C@H]2[C@@H]3[C@@H](O)C[C@@H]4C[C@H](O)CC[C@]4(C)[C@H]3CC[C@]12C [TAURURSODIOL] | substrate [+] |
